≈ marks a conversion by molar mass, not a printed value. Peptide text beside a SMILES is read from it.
Test: physchem
Type: physicochemical
Experimental: Results of measurement of solubility of a peptide protected with an alkyldiphenylmethane protective agent of the present invention are shown below.
Peptide used as model: H-Phe-Leu-Gly-NH2
H-Phe-Leu-Gly-NH2 and H-Phe-Leu-Gly-NH-(TIPS2-Dpm(Me)) were synthesized, CPME (cyclopentyl methyl ether) was saturated with each of the compounds at 25° C., and the solubility was measured.
As a result, merely 0.2 mM of H-Phe-Leu-Gly-NH2 to which an alkyldiphenylmethane protective agent was not bonded was dissolved in CPME. […] H-Phe-Leu-Gly-NH2 and H-Phe-Leu-Gly-NH-(TIPS2-Dpm(Me)) represent the following structures.

Row | SMILES | solubility [µM] | increase in solubility versus H-Phe-Leu-Gly-NH2
1 | CC(C)C[C@H](NC(=O)[C@@H](N)Cc1ccccc1)C(=O)NCC(N)=O [H-Phe-Leu-Gly-NH2, reference compound] (H-Phe-Leu-Gly-NH2) | 200 (≈ 0.0669 mg/mL) | 
2 | CC(C)C[C@H](NC(=O)[C@@H](N)Cc1ccccc1)C(=O)NCC(=O)NC(C)(c1ccc(OCCCCCCCCCCCO[Si](C(C)C)(C(C)C)C(C)C)cc1)c1ccc(OCCCCCCCCCCCO[Si](C(C)C)(C(C)C)C(C)C)cc1 [H-Phe-Leu-Gly-NH-(TIPS2-Dpm(Me))] | ≥ 838000 | ≥ 4,190 fold

— US11542287B2, “Alkyldiphenylmethane protective agent” (priority 2017, dated 2023)
